Test results taken from patent US10329320B2, “Neuroactive steroids, compositions, and uses thereof” (Sage Therapeutics, Inc., priority 2015, dated 2019).
pIC50: −log10 of the molar value.

These compounds were tested against GABAA receptor ([35S]-TBPS binding, rat brain cortical membranes) (assay: Steroid inhibition of [35S]-TBPS binding (radioligand displacement)). Settings: 3 nM [35S]-TBPS, in the presence of 5 μM GABA.
Protocol: TBPS binding assays using rat brain cortical membranes in the presence of 5 μM GABA has been described (Gee et al, J. Pharmacol. Exp. Ther. 1987, 241, 346-353; Hawkinson et al, Mol. Pharmacol. 1994, 46, 977-985; Lewin, A. H et al., Mol. Pharmacol. 1989, 35, 189-194).
Briefly, cortices are rapidly removed following decapitation of carbon dioxide-anesthetized Sprague-Dawley rats (200-250 g). The cortices are homogenized in 10 volumes of ice-cold 0.32 M sucrose using a glass/teflon homogenizer and centrifuged at 1500×g for 10 min at 4° C. The resultant supernatants are centrifuged at 10,000×g for 20 min at 4° C. to obtain the P2 pellets. The P2 pellets are resuspended in 200 mM NaCl/50 mM Na—K phosphate pH 7.4 buffer and centrifuged at 10,000×g for 10 min at 4° C. This washing procedure is repeated twice and the pellets are resuspended in 10 volumes of buffer. Aliquots (100 μL) of the membrane suspensions are incubated with 3 nM [^35S]-TBPS and 5 μL aliquots of test drug dissolved in dimethyl sulfoxide (DMSO) (final 0.5%) in the presence of 5 μM GABA. The incubation is brought to a final volume of 1.0 mL with buffer. Nonspecific binding is determined in the presence of 2 μM unlabeled TBPS and ranged from 15 to 25%. Following a 90 min incubation at room temp, the assays are terminated by filtration through glass fiber filters (Schleicher and Schuell No. 32) using a cell harvester (Brandel) and rinsed three times with ice-cold buffer. Filter bound radioactivity is measured by liquid scintillation spectrometry. Non-linear curve fitting of the overall data for each drug averaged for each concentration is done using Prism (GraphPad). […] The concentration of test compound producing 50% inhibition (IC50) of specific binding and the maximal extent of inhibition (Imax) are determined for the individual experiments with the same model used for the overall data and then the means ±SEM.s of the individual experiments are calculated.
Various compounds are or can be screened to determine their potential as modulators of [^35S]-TBPS binding in vitro. These assays are or can be performed in accordance with the above discussed procedures.
`COC[C@]12CC[C@@](C)(O)C[C@@H]1CC[C@H]1[C@@H]3CC[C@H](C(=O)Cn4ccnc4C#N)[C@@]3(C)CC[C@@H]12` [Compound 36] gave a pIC50 of 6.30 to 7.00.
Work on `CC(C)OC[C@]12CC[C@@](C)(O)C[C@H]1CC[C@H]1[C@@H]3CC[C@H](C(=O)Cn4nnc5ccc(F)c(F)c54)[C@@]3(C)CC[C@@H]12` [Compound 69] yielded a pIC50 greater than 8.00.
Compound `COC[C@]12CC[C@@](C)(O)C[C@@H]1CC[C@H]1[C@@H]3CC[C@H](C(=O)Cn4ncc5cccc(OC)c54)[C@@]3(C)CC[C@@H]12` [Compound 41] has a pIC50 of 7.00 to 7.30.
In the case of `CCOC(=O)c1cn(CC(=O)[C@H]2CC[C@H]3[C@@H]4CC[C@H]5C[C@](C)(O)CC[C@]5(COC)[C@H]4CC[C@]23C)nn1` [Compound 80], the pIC50 was 6.30 to 7.00.
Work on `COC[C@]12CC[C@@](C)(O)C[C@H]1CC[C@H]1[C@@H]3CC[C@H](C(=O)Cn4nc5ccc(OC)cc5n4)[C@@]3(C)CC[C@@H]12` [Compound 27] yielded a pIC50 greater than 8.00.
`COC[C@]12CC[C@@](C)(O)C[C@H]1CC[C@H]1[C@@H]3CC[C@H](C(=O)Cn4nc5ccc(Cl)c(F)c5n4)[C@@]3(C)CC[C@@H]12` [Compound 24] was tested, and the pIC50 was greater than 8.00.
`COC[C@]12CC[C@@](C)(O)C[C@@H]1CC[C@H]1[C@@H]3CC[C@H](C(=O)Cn4nnc5cc(Cl)cnc54)[C@@]3(C)CC[C@@H]12` [Compound 12] gave a pIC50 greater than 8.00.
In the case of `COC[C@]12CC[C@@](C)(O)C[C@@H]1CC[C@H]1[C@@H]3CC[C@H](C(=O)Cn4cc(C(=O)O)nn4)[C@@]3(C)CC[C@@H]12` [Compound 82], the pIC50 was less than 6.30.
For `COC[C@]12CC[C@@](C)(O)C[C@H]1CC[C@H]1[C@@H]3CC[C@H](C(=O)Cn4ncc5ccc(F)cc54)[C@@]3(C)CC[C@@H]12` [Compound 15], the pIC50 was greater than 8.00.
`COC[C@]12CC[C@@](C)(O)C[C@@H]1CC[C@H]1[C@@H]3CC[C@H](C(=O)Cn4nc5cc(Cl)cnc5n4)[C@@]3(C)CC[C@@H]12` [Compound 13] showed a pIC50 greater than 8.00.
Work on `COC[C@]12CC[C@@](C)(O)C[C@H]1CC[C@H]1[C@@H]3CC[C@H](C(=O)Cn4nnc5c(OC)cccc54)[C@@]3(C)CC[C@@H]12` [Compound 28] yielded a pIC50 greater than 8.00.
`COC[C@]12CC[C@@](C)(O)C[C@@H]1CC[C@H]1[C@@H]3CC[C@H](C(=O)Cn4ncc(C(=O)O)n4)[C@@]3(C)CC[C@@H]12` [Compound 81] gave a pIC50 of less than 6.30.
For `COC[C@]12CC[C@@](C)(O)C[C@@H]1CC[C@H]1[C@@H]3CC[C@H](C(=O)Cn4nnc5c(F)c(Cl)ccc54)[C@@]3(C)CC[C@@H]12` [Compound 51], the pIC50 was greater than 8.00.
With `COC[C@]12CC[C@@](C)(O)C[C@H]1CC[C@H]1[C@@H]3CC[C@H](C(=O)Cn4nnnc4C)[C@@]3(C)CC[C@@H]12` [Compound 63] the pIC50 was 6.30 to 7.00.
For `COC[C@]12CC[C@@](C)(O)C[C@H]1CC[C@H]1[C@@H]3CC[C@H](C(=O)Cn4cc(N)cn4)[C@@]3(C)CC[C@@H]12` [Compound 66], the pIC50 was 7.30 to 8.00.
`COC[C@]12CC[C@@](C)(O)C[C@@H]1CC[C@H]1[C@@H]3CC[C@H](C(=O)Cn4cc(C)cn4)[C@@]3(C)CC[C@@H]12` [Compound 60] was tested, and the pIC50 was 6.30 to 7.00.
`COC[C@]12CC[C@@](C)(O)C[C@H]1CC[C@H]1[C@@H]3CC[C@H](C(=O)Cn4cc([S+](C)[O-])cn4)[C@@]3(C)CC[C@@H]12` (some centres unmarked) [Compound 22] gave a pIC50 of 6.30 to 7.00.
Compound `COC[C@]12CC[C@@](C)(O)C[C@H]1CC[C@H]1[C@@H]3CC[C@H](C(=O)Cn4nnc5cccc(OC)c54)[C@@]3(C)CC[C@@H]12` [Compound 29] has a pIC50 greater than 8.00.
With `COC[C@]12CC[C@@](C)(O)C[C@H]1CC[C@H]1[C@@H]3CC[C@H](C(=O)Cn4nnc5ccccc54)[C@@]3(C)CC[C@@H]12` [Compound 18] the pIC50 was greater than 8.00.
For `COC[C@]12CC[C@@](C)(O)C[C@@H]1CC[C@H]1[C@@H]3CC[C@H](C(=O)Cn4cc5ccc(OC)cc5n4)[C@@]3(C)CC[C@@H]12` [Compound 42], the pIC50 was 7.30 to 8.00.
Compound `COC[C@]12CC[C@@](C)(O)C[C@H]1CC[C@H]1[C@@H]3CC[C@H](C(=O)Cn4cnc(F)c4)[C@@]3(C)CC[C@@H]12` [Compound 52] has a pIC50 of 7.30 to 8.00.
For `COC[C@]12CC[C@@](C)(O)C[C@@H]1CC[C@H]1[C@@H]3CC[C@H](C(=O)Cn4cc5ccc(OC)cc5n4)[C@@]3(C)CC[C@@H]12` [Compound 48], the pIC50 was 7.00 to 7.30.
With `COC[C@]12CC[C@@](C)(O)C[C@@H]1CC[C@H]1[C@@H]3CC[C@H](C(=O)Cn4ncc5cccnc54)[C@@]3(C)CC[C@@H]12` [Compound 47] the pIC50 was 7.30 to 8.00.
Work on `COC[C@]12CC[C@@](C)(O)C[C@@H]1CC[C@H]1[C@@H]3CC[C@H](C(=O)Cn4cc(OC)cn4)[C@@]3(C)CC[C@@H]12` [Compound 37] yielded a pIC50 of 6.30 to 7.00.
Compound `COC[C@]12CC[C@@](C)(O)C[C@H]1CC[C@H]1[C@@H]3CC[C@H](C(=O)Cn4cc(SC)cn4)[C@@]3(C)CC[C@@H]12` [Compound 21] has a pIC50 greater than 8.00.
Compound `COC[C@]12CC[C@@](C)(O)C[C@@H]1CC[C@H]1[C@@H]3CC[C@H](C(=O)Cn4ncc5ccc(OC)cc54)[C@@]3(C)CC[C@@H]12` [Compound 49] has a pIC50 of 7.00 to 7.30.
Work on `COC[C@]12CC[C@@](C)(O)C[C@H]1CC[C@H]1[C@@H]3CC[C@H](C(=O)Cn4cc5cc(F)ccc5n4)[C@@]3(C)CC[C@@H]12` [Compound 17] yielded a pIC50 of 7.30 to 8.00.
For `COC[C@]12CC[C@@](C)(O)C[C@H]1CC[C@H]1[C@@H]3CC[C@H](C(=O)Cn4ncc5cc(F)ccc54)[C@@]3(C)CC[C@@H]12` [Compound 16], the pIC50 was greater than 8.00.
With `COC[C@]12CC[C@@](C)(O)C[C@@H]1CC[C@H]1[C@@H]3CC[C@H](C(=O)Cn4ncc5c(OC)cccc54)[C@@]3(C)CC[C@@H]12` [Compound 45] the pIC50 was 7.00 to 7.30.
`COC[C@]12CC[C@@](C)(O)C[C@H]1CC[C@@H]1[C@@H]2CC[C@]2(C)C(C(=O)Cn3nnnc3C)CC[C@@H]12` (some centres unmarked) [Compound 74] was tested, and the pIC50 was 6.30 to 7.00.
`COC[C@]12CC[C@@](C)(O)C[C@@H]1CC[C@H]1[C@@H]3CC[C@H](C(=O)Cn4cc5ccncc5n4)[C@@]3(C)CC[C@@H]12` [Compound 46] gave a pIC50 of 7.30 to 8.00.
For `CC(C)OC[C@]12CC[C@@](C)(O)C[C@H]1CC[C@H]1[C@@H]3CC[C@H](C(=O)Cn4nc5ccc(F)c(F)c5n4)[C@@]3(C)CC[C@@H]12` [Compound 70], the pIC50 was greater than 8.00.
Compound `COC[C@]12CC[C@@](C)(O)C[C@@H]1CC[C@H]1[C@@H]3CC[C@H](C(=O)Cn4ncc5cc(OC)ccc54)[C@@]3(C)CC[C@@H]12` [Compound 43] has a pIC50 of 7.00 to 7.30.
For `COC[C@]12CC[C@@](C)(O)C[C@H]1CC[C@H]1[C@@H]3CC[C@H](C(=O)Cn4cc(C(F)(F)F)cn4)[C@@]3(C)CC[C@@H]12` [Compound 67], the pIC50 was 7.30 to 8.00.
Work on `COC[C@]12CC[C@@](C)(O)C[C@H]1CC[C@H]1[C@@H]3CC[C@H](C(=O)Cn4cc5ccccc5n4)[C@@]3(C)CC[C@@H]12` [Compound 19] yielded a pIC50 greater than 8.00.
Work on `COC[C@]12CC[C@@](C)(O)C[C@H]1CC[C@H]1[C@@H]3CC[C@H](C(=O)Cn4nnc5ccc(OC)cc54)[C@@]3(C)CC[C@@H]12` [Compound 25] yielded a pIC50 greater than 8.00.
Compound `COC[C@]12CC[C@@](C)(O)C[C@@H]1CC[C@H]1[C@@H]3CC[C@H](C(=O)Cn4cnc(F)c4)[C@@]3(C)CC[C@@H]12` [Compound 59] has a pIC50 of 6.30 to 7.00.
`COC[C@]12CC[C@@](C)(O)C[C@@H]1CC[C@H]1[C@@H]3CC[C@H](C(=O)Cn4ncc(C(N)=O)n4)[C@@]3(C)CC[C@@H]12` [Compound 83] showed a pIC50 of 6.30 to 7.00.
In the case of `COC[C@]12CC[C@@](C)(O)C[C@H]1CC[C@H]1[C@@H]3CC[C@H](C(=O)Cn4cc5ccc(F)cc5n4)[C@@]3(C)CC[C@@H]12` [Compound 14], the pIC50 was greater than 8.00.
With `COC[C@]12CC[C@@](C)(O)C[C@@H]1CC[C@H]1[C@@H]3CC[C@H](C(=O)Cn4cc5c(OC)cccc5n4)[C@@]3(C)CC[C@@H]12` [Compound 44] the pIC50 was 7.30 to 8.00.
`COC[C@]12CC[C@@](C)(O)C[C@@H]1CC[C@H]1[C@@H]3CC[C@H](C(=O)Cn4cc(OC(C)C)cn4)[C@@]3(C)CC[C@@H]12` [Compound 38] showed a pIC50 of 7.00 to 7.30.
Compound `COC[C@]12CC[C@@](C)(O)C[C@H]1CC[C@H]1[C@@H]3CC[C@H](C(=O)Cn4cc([S+](C)[O-])cn4)[C@@]3(C)CC[C@@H]12` (some centres unmarked) [Compound 35] has a pIC50 of less than 6.30.
`COC[C@]12CC[C@@](C)(O)C[C@@H]1CC[C@H]1[C@@H]3CC[C@H](C(=O)Cn4ncc(CO)n4)[C@@]3(C)CC[C@@H]12` [Compound 85] showed a pIC50 of less than 6.30.
`COC[C@]12CC[C@@](C)(O)C[C@H]1CC[C@H]1[C@@H]3CC[C@H](C(=O)Cn4nc5cccc(OC)c5n4)[C@@]3(C)CC[C@@H]12` [Compound 30] gave a pIC50 greater than 8.00.
`COC[C@]12CC[C@@](C)(O)C[C@@H]1CC[C@H]1[C@@H]3CC[C@H](C(=O)Cn4nc5cc(F)cc(F)c5n4)[C@@]3(C)CC[C@@H]12` [Compound 10] was tested, and the pIC50 was greater than 8.00.
Work on `CC(C)OC[C@]12CC[C@@](C)(O)C[C@H]1CC[C@H]1[C@@H]3CC[C@H](C(=O)Cn4nnc5c(F)c(F)ccc54)[C@@]3(C)CC[C@@H]12` [Compound 68] yielded a pIC50 greater than 8.00.
`COC[C@]12CC[C@@](C)(O)C[C@H]1CC[C@H]1[C@@H]3CC[C@H](C(=O)Cn4nnc5cc(OC)ccc54)[C@@]3(C)CC[C@@H]12` [Compound 26] showed a pIC50 greater than 8.00.
